We go through two molecules from patent publication US11731942B1, “3-substituted quinolin-2-one compounds as antibacterial agents” (KING FAISAL UNIVERSITY, priority 2023, dated 2023).

Values after ≈ are worked out from the molar mass of the structure shown. Like-named read-outs stand apart in the source and are kept apart here.

Assay [1] concerns H37Rv type of M. tuberculosis strains. Nature of the assay: Anti-tubercular alamar blue microplate MIC. The format is cell-based. Particulars: 168 h, mycobacterium tuberculosis H37Rv strain, 7 days at 37° C., read-out: anti-mycobacterial activity (MIC). On the technique in general: Alamar Blue is a resazurin reagent that responds to reducing activity.
Assay [2] has as its system Pseudomonas aeruginosa MTCC 741. Nature of the assay: In vitro antibacterial activity (CLSI M07-A10 dilution), MIC. It is filed as cell-based. Particulars: MTCC741.
Assay [3] has as its system Staphylococcus aureus ATCC BAA-1556 (MERSA resistant). The assay is described as above. It is filed as cell-based. Particulars: ATCCBAA1556.
For assay [4], the system named is Escherichia coli MTCC 443. Described as above. It is filed as cell-based. Particulars: MTCC443.
The subject of assay [5] is Enterococcus faecium ATCC 51559 (VRE resistant). The description is as above. The format is cell-based.
Assay [6] has as its system Klebsiella pneumonia MTCC 618. The assay is described as above. Particulars: Klebsiella pneumoniae, MTCC618. The format is cell-based.
Assay [7] concerns Staphylococcus aureus ATCC 29213. The assay is described as above. The format is cell-based. Particulars: ATCC29213.
The test system of assay [8] is Staphylococcus epidermidis. Described as above. It is filed as cell-based.
The target of a further assay is T1, E. coli DNA Gyrase (Escherichia coli, UniProt P0AES4+P0AES6).
T1 construct: purchased Inspiralis
The experiment in a line: Inspiralis DNA gyrase inhibition assay. It is filed as biochemical. How it is done:
Inhibitory potencies were investigated utilizing the Inspiralis assay on streptavidin-coated 96-well microtiter plates. First, the plates were rehydrated with buffer (20 mM Tris-HCl with pH 7.6, 0.01% w/v BSA, 0.05% v/v Tween 20, 137 mM NaCl) and the biotinylated oligonucleotide was then immobilized. After washing off the unbound oligonucleotide, the enzyme test was performed. The reaction volume of 30 μL in buffer (35 mM Tris×HCl with pH 7.5, 4 mM MgCl2, 24 mM KCl, 2 mM DTT, 1.8 mM spermidine, 1 mM ATP, 6.5% w/v glycerol, 0.1 mg/mL albumin) contained 1.5 U of DNA gyrase from E. coli, 0.75 μg of relaxed pNO1 plasmid, and 3 μL solution of the inhibitor in 10% DMSO and 0.008% Tween 20. Reaction solutions were incubated at 37° C. for 30 min. After that, the TF buffer (50 mM NaOAc with pH 5.0, 50 mM NaCl and 50 mM MgCl2) was added to terminate the enzymatic reaction. After additional incubation for 30 min at rt, during which biotinoligonucleotide-plasmid triplex was formed, the unbound plasmid was washed off using TF buffer and SybrGOLD in T10 buffer (10 mM Tris HCl with pH 8.0 and 1 mM EDTA) was added. The fluorescence was measured with a microplate reader (BioTek Synergy H4, excitation: 485 nm, emission: 535 nm). Initial screening was done at 100 or 10 μM concentration of inhibitors. […] GraphPad Prism software was used to calculate the IC50 values. […]

For assay [9], the system named is Enterococcus faecium ATCC 35667. The experiment in a line: In vitro antibacterial activity (CLSI M07-A10 dilution), MIC. It is filed as cell-based. Particulars: ATCC35667.
The subject of assay [10] is Bacillus subtilis MTCC 441. Described as above. The format is cell-based. Particulars: MTCC441.

T1 sequence (P0AES4 whole entry, one chain of several): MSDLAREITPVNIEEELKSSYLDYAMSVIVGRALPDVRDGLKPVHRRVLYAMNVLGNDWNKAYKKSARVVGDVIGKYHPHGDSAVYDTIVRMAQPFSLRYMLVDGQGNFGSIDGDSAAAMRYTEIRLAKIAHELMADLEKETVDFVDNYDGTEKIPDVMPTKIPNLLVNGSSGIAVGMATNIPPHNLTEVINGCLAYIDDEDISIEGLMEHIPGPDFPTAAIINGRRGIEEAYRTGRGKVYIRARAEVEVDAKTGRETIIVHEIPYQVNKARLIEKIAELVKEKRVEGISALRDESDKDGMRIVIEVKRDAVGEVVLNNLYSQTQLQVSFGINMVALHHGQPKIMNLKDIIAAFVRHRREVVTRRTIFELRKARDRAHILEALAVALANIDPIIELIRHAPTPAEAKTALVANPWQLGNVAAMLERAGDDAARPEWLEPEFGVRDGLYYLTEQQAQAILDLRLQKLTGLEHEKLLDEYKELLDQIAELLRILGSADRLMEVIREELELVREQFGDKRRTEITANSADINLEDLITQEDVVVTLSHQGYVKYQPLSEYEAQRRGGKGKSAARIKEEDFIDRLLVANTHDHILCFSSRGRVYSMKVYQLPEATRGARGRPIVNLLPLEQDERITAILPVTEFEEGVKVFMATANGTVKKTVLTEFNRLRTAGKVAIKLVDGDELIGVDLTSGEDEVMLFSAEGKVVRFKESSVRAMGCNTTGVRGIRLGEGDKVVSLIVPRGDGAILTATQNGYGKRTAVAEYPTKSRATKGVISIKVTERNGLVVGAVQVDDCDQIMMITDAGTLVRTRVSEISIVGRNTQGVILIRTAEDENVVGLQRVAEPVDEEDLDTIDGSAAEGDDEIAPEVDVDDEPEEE

In general, MIC refers to the lowest concentration that inhibits growth of the organism. Broadly, the IC50 is the concentration that gives 50% inhibition. Turning to `CCCCCN(C)Cc1cc(C(=O)O)ccc1/C=C/C(=O)c1cc2cc(F)cc(NC)c2[nH]c1=O` [Compound 7, (E)-4-(3-(6-fluoro-8-(methylamino)-2-oxo-1,2-dihydroquinolin-3-yl)-3-oxoprop-1-en-1-yl)-3-((methyl(pentyl)amino)methyl)benzoic acid], the MIC is 4 µg/mL (≈ 8.34 µM) in assay [1]; 0.25 µg/mL (≈ 0.521 µM) in assay [2] (Pseudomonas aeruginosa MTCC 741, read-out: MIC); 0.5 µg/mL (≈ 1.04 µM) in assay [3] (Staphylococcus aureus ATCC BAA-1556 (MERSA resistant), read-out: MIC); 1 µg/mL (≈ 2.09 µM) in assay [4] (Escherichia coli MTCC 443, read-out: MIC); 0.25 µg/mL (≈ 0.521 µM) in [5] (Enterococcus faecium ATCC 51559 (VRE resistant), read-out: MIC); 0.5 µg/mL (≈ 1.04 µM) in assay [6] (Klebsiella pneumonia MTCC 618, read-out: MIC). Moreover, the MIC in assay [7] (Staphylococcus aureus ATCC 29213, read-out: MIC) was found to be 0.5 µg/mL (≈ 1.04 µM); in assay [8] (read-out: MIC) it was 0.5 µg/mL (≈ 1.04 µM); in [9] (Enterococcus faecium ATCC 35667, read-out: MIC), 0.25 µg/mL (≈ 0.521 µM); in assay [10] (Bacillus subtilis MTCC 441, read-out: MIC), 0.25 µg/mL (≈ 0.521 µM). Also, at E. coli DNA Gyrase, the IC50 worked out at 12 nM.
For the molecule `CN[C@H](CC(C)C)C(=O)N[C@H]1C(=O)N[C@@H](CC(N)=O)C(=O)N[C@H]2C(=O)N[C@H]3C(=O)N[C@H](C(=O)N[C@H](C(=O)O)c4cc(O)cc(O)c4-c4cc3ccc4O)[C@H](O)c3ccc(c(Cl)c3)Oc3cc2cc(c3O[C@@H]2O[C@H](CO)[C@@H](O)[C@H](O)[C@H]2O[C@H]2C[C@](C)(N)[C@H](O)[C@H](C)O2)Oc2ccc(cc2Cl)[C@H]1O` [Vancomycin, reference compound], the minimum inhibitory concentration (MIC) was > 128 µg/mL in assay [2] (Pseudomonas aeruginosa); 1 µg/mL (≈ 0.69 µM) in assay [3] (Staphylococcus aureus); > 128 µg/mL in [4] (Escherichia coli); > 128 µg/mL in assay [5] (Enterococcus faecium); > 128 µg/mL in assay [6]; 1 µg/mL (≈ 0.69 µM) in assay [7] (Staphylococcus aureus). Besides, the MIC in assay [8] came to 1 µg/mL (≈ 0.69 µM); in assay [9] (Enterococcus faecium) it was 0.5 µg/mL (≈ 0.345 µM); in assay [10] (Bacillus subtilis), 0.5 µg/mL (≈ 0.345 µM).
